Data taken from the supplement of paper PMC11451515.

Tested on: NOMO1
Assay: cell viability relative to DMSO control; higher = less cytotoxic
Settings: 48 h
In short: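 Viability, reported as a per-plate percentage of DMSO wells with cell-free wells as background, came from CellTiter-Glo One luminescence. Reading took place after 48 h at 37°C. Before that, NOMO1 or SEM (500 cells/well) or P12-Ichikawa (1000 cells/well) leukemia cells, adapted for at least four passages in each medium, were seeded in 1536-well plates (5 μl) and pin-dosed with library compounds in DMSO, 47 μM to 0.79 nM over 11 threefold points.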

[1] = HPLM + 10% dialyzed FBS, 0.000781 µM
[2] = HPLM + 10% dialyzed FBS, 0.00234 µM
[3] = HPLM + 10% dialyzed FBS, 0.00702 µM
[4] = HPLM + 10% dialyzed FBS, 0.0211 µM
[5] = HPLM + 10% dialyzed FBS, 0.0632 µM
[6] = HPLM + 10% dialyzed FBS, 0.19 µM
[7] = HPLM + 10% dialyzed FBS, 0.569 µM
[8] = HPLM + 10% dialyzed FBS, 1.71 µM
[9] = HPLM + 10% dialyzed FBS, 5.12 µM
[10] = HPLM + 10% dialyzed FBS, 15.4 µM
[11] = HPLM + 10% dialyzed FBS, 46.1 µM
[12] = RPMI 5 mM glucose + 10% FBS, 0.000781 µM
[13] = RPMI 5 mM glucose + 10% FBS, 0.00234 µM
[14] = RPMI 5 mM glucose + 10% FBS, 0.00702 µM
[15] = RPMI 5 mM glucose + 10% FBS, 0.0211 µM
[16] = RPMI 5 mM glucose + 10% FBS, 0.0632 µM
[17] = RPMI 5 mM glucose + 10% FBS, 0.19 µM
[18] = RPMI 5 mM glucose + 10% FBS, 0.569 µM
[19] = RPMI 5 mM glucose + 10% FBS, 1.71 µM
[20] = RPMI 5 mM glucose + 10% FBS, 5.12 µM
[21] = RPMI 5 mM glucose + 10% FBS, 15.4 µM
[22] = RPMI 5 mM glucose + 10% FBS, 46.1 µM
[23] = RPMI 5 mM glucose + 10% dialyzed FBS, 0.000781 µM
[24] = RPMI 5 mM glucose + 10% dialyzed FBS, 0.00234 µM
[25] = RPMI 5 mM glucose + 10% dialyzed FBS, 0.00702 µM
[26] = RPMI 5 mM glucose + 10% dialyzed FBS, 0.0211 µM
[27] = RPMI 5 mM glucose + 10% dialyzed FBS, 0.0632 µM
[28] = RPMI 5 mM glucose + 10% dialyzed FBS, 0.19 µM
[29] = RPMI 5 mM glucose + 10% dialyzed FBS, 0.569 µM
[30] = RPMI 5 mM glucose + 10% dialyzed FBS, 1.71 µM
[31] = RPMI 5 mM glucose + 10% dialyzed FBS, 5.12 µM
[32] = RPMI 5 mM glucose + 10% dialyzed FBS, 15.4 µM
[33] = RPMI 5 mM glucose + 10% dialyzed FBS, 46.1 µM

| SMILES | cell viability [1] [%] | cell viability [2] [%] | cell viability [3] [%] | cell viability [4] [%] | cell viability [5] [%] | cell viability [6] [%] | cell viability [7] [%] | cell viability [8] [%] | cell viability [9] [%] | cell viability [10] [%] | cell viability [11] [%] | cell viability [12] [%] | cell viability [13] [%] | cell viability [14] [%] | cell viability [15] [%] | cell viability [16] [%] | cell viability [17] [%] | cell viability [18] [%] | cell viability [19] [%] | cell viability [20] [%] | cell viability [21] [%] | cell viability [22] [%] | cell viability [23] [%] | cell viability [24] [%] | cell viability [25] [%] | cell viability [26] [%] | cell viability [27] [%] | cell viability [28] [%] | cell viability [29] [%] | cell viability [30] [%] | cell viability [31] [%] | cell viability [32] [%] | cell viability [33] [%] |
| --- | --- | --- | --- | --- | --- | --- | --- | --- | --- | --- | --- | --- | --- | --- | --- | --- | --- | --- | --- | --- | --- | --- | --- | --- | --- | --- | --- | --- | --- | --- | --- | --- | --- |
| COc1cc(Nc2ncc(F)c(Nc3ccc4c(n3)NC(=O)C(C)(C)O4)n2)cc(OC)c1OC | 93.8 | 105 | 119 | 127 | 139 | 138 | 120 | 106 | 53.3 | 11.4 | 6.39 | 104 | 111 | 118 | 118 | 125 | 126 | 128 | 106 | 73.9 | 13.4 | 7.45 | 109 | 99.7 | 107 | 106 | 105 | 116 | 128 | 103 | 82.7 | 23.9 | 6.81 |
| C\C1=C\C(=O)C2=C(C=CC=C2)C1=O | 100 | 122 | 117 | 134 | 132 | 126 | 126 | 134 | 128 | 131 | 127 | 116 | 108 | 120 | 125 | 133 | 133 | 137 | 124 | 129 | 125 | 140 | 119 | 117 | 131 | 130 | 140 | 128 | 135 | 151 | 128 | 148 | 134 |
| CCN(CC)C(=S)SSC(=S)N(CC)CC | 97.9 | 112 | 135 | 130 | 131 | 121 | 147 | 132 | 5.58 | 46.8 | 2.75 | 104 | 112 | 119 | 120 | 129 | 110 | 127 | 127 | 4.7 | 12.4 | 3.34 | 114 | 120 | 131 | 122 | 123 | 128 | 131 | 120 | 6.51 | 5.46 | 2.56 |
| COc1cc(O)c2c(c1)C1OC1C[C@H](O)[C@H](O)C(=O)/C=C\C[C@H](C)OC2=O (stereo partly drawn) | 92.7 | 118 | 104 | 111 | 126 | 120 | 122 | 125 | 108 | 31.3 | 12.5 | 109 | 99.9 | 99 | 120 | 105 | 96.7 | 121 | 103 | 97.8 | 50.4 | 13.7 | 93.5 | 98 | 105 | 109 | 110 | 114 | 113 | 100 | 94.7 | 50.7 | 17.5 |
| O=C(Nc1cccc(Nc2ncc(Br)c(NCCc3cnc[nH]3)n2)c1)N1CCCC1 | – | – | – | – | – | – | – | – | – | – | – | 113 | 117 | 122 | 112 | 112 | 110 | 68.7 | 71.1 | 62.8 | 12.4 | 1.13 | 103 | 106 | 107 | 107 | 113 | 95.2 | 92.2 | 59.6 | 65.2 | 37.1 | 0.0873 |
| CCOC(=O)[C@H](CCc1ccccc1)N[C@@H](C)C(=O)N1CCC[C@H]1C(=O)O | 128 | 105 | 117 | 134 | 125 | 119 | 108 | 119 | 110 | 99.8 | 102 | 114 | 105 | 111 | 102 | 102 | 105 | 97.7 | 103 | 98.7 | 93.3 | 103 | 97.9 | 109 | 116 | 122 | 116 | 123 | 112 | 110 | 103 | 96 | 99.5 |
| O=C1Nc2ccc(Cl)cc2[C@@](C#CC2CC2)(C(F)(F)F)O1 | 74.7 | 97 | 76.4 | 85.9 | 97 | 84.8 | 80.2 | 81.4 | 59 | 57.2 | 79.8 | 73.7 | 78.2 | 77.1 | 80.7 | 88.7 | 80.8 | 79.3 | 80.4 | 81.3 | 77.3 | 12.5 | 70.1 | 90.1 | 92.3 | 101 | 97.9 | 95.9 | 95.6 | 93.2 | 86.7 | 95.7 | 78.3 |
| CN1CCC(CC1)COC2=CN=C(N=C2)C3=CC(=CC=C3)CN4/N=C(\C=C/C4=O)C5=CC(=CC=C5)C#N | 105 | 111 | 103 | 118 | 119 | 127 | 111 | 111 | 123 | 120 | 101 | 106 | 110 | 103 | 107 | 118 | 119 | 108 | 123 | 113 | 116 | 114 | 88 | 111 | 103 | 109 | 109 | 115 | 102 | 120 | 118 | 100 | 114 |
